# Assay results reported in publication PMC3518590 (Journal of inorganic biochemistry, 2012).
# Entries after “also recorded” stand apart in the source; their conditions may differ. Read-outs that look alike come from different tables or passages of the source.
# Columns and labels:
# [1] = UV-Vis spectroscopy assay for decomposition in buffer; conditions: no PLE
# [2] = test system: Yeast ALDH (E.C. 1.2.1.5); experiment: In vitro reactivation of inhibited yeast ALDH by DTT; format: biochemical; conditions: inhibitor at ten-times IC50, DTT 10 mM
# [3] = test system: Yeast ALDH (E.C. 1.2.1.5); experiment: In vitro inhibition of yeast ALDH; format: biochemical; conditions: for IC50: read-out: ALDH inhibition IC50, 37 °C preincubation; for time to complete inhibition of ALDH: inhibitor at ten-fold the IC50
# [4] = target: ALDH peptide A286-R307 (AIDWIAAGIFYLNSGQNCTANSR) (Saccharomyces cerevisiae, UniProt P47771); experiment: LC-MS reactivity with ALDH peptide A286-R307
# [5] = buffer, pH 7.4
# oxymyoglobin (MbO2) = oxymyoglobin (MbO2) (Equus caballus, UniProt P68082); experiment: UV-vis assay of metMb formation from MbO2; format: biochemical
# [6] = test system: Yeast ALDH (E.C. 1.2.1.5); conditions: read-out: ALDH inhibition, reported IC50; ref [24], [25]; cited from earlier work
# [7] = buffer; cited from earlier work
# [8] = Water solubility in buffer; format: physicochemical
# [9] = 10 eq. reagent, peptide 10 μM, no PLE, room temperature
# Sequence of UniProt P47771 (P47771 286-307): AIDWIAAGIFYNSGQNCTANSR
# Sequence of oxymyoglobin (MbO2) (P68082 whole entry): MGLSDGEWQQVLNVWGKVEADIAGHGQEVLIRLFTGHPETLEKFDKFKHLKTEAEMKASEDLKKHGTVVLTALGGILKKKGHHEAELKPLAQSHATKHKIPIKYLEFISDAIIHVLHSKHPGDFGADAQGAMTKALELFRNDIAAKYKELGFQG
Molecule,ALDH enzyme activity restored by DTT ([2]; no PLE),IC50 ([3]; absence of PLE),"Product(s) of reaction with ALDH peptide [4, 9]",time to complete inhibition of ALDH [3],IC50 [6],decomposition t1/2 (comparison value) [7],also measured
4-Nitrosotetrahydro-2H-pyran-4-yl Pivalate [compound 5],63%,3300 nM,RSSR,,,,"decomposition rate constant k ([1]; 3 % mixture of DMF:PBS (100 mM, pH 7.4), 37 °C): 6e-06 s⁻¹; ALDH enzyme activity restored by DTT ([2]; in the presence of PLE): 43%; IC50 ([3]; presence of PLE (9 U/μmol)): 3500 nM; Product(s) of reaction with ALDH peptide ([4]; 10 eq. reagent + PLE (9 U/μmol), room temperature): RSSR and sulfinamide; decomposition t1/2 [5]: 32 h; rate constant of MbO2 conversion to metMb (oxymyoglobin (MbO2); MbO2 42 μM, compound 84 μM, PLE 9 U/μmol, PBS pH 7.4, 37 °C): 0.0003 s⁻¹; reaction with MbO2 (absorption spectra) (oxymyoglobin (MbO2); absence of PLE): no change in the absorption spectra"
"[Na+].[Na+].[O-][N+]([O-])=NO [AS, Angeli’s salt (NaN2O3, AS)]",46%,2100 nM,sulfinamide-minor; also recorded: dhA -major,≤ 10 min,1800 nM,,Product(s) of reaction with ALDH peptide ([4]; 1000 eq. reagent): sulfinamide
"O=Nc1ccccc1 [NB, Nitrosobenzene]",15%,200 nM,N-phenyl sulfinamide,≤ 10 min,2500 nM,,
CC(=O)OC1(N=O)CCCCC1 [compound 1],,,,,,14.8 h,
CC(C)(C)C(=O)OC1(N=O)CCCCC1 [compound 2],,,,,,37.8 h,
"CC(=O)OC1(N=O)CCOCC1 [compound 4, 4-Nitrosotetrahydro-2H-pyran-4-yl Acetate]",,,,,,,"decomposition rate constant k ([1]; buffered conditions, PBS 100 mM pH 7.4, 37 °C): 3e-05 s⁻¹; solubility [8]: 1700 µM"
